Entries after “also recorded” stand apart in the source; their conditions may differ.
How the values were obtained:
[1] = test system: HMLER and HCC38 CD44^Lo cells; test: Flow cytometry of chemotherapy-induced CD44^Lo to CD44^Hi plasticity; format: cell-based, human; settings: for induction of CD44^Lo-to-CD44^Hi transition by chemotherapy: one dose of chemotherapy for 72 hours
Source text: Cells were stained and fixed as with DHT treatment.
Using purified populations of CD44^Lo cells (with no CD44^Hi fraction) the effects of chemotherapy on cellular plasticity was investigated using flow cytometry.

ELX12-58 PDX model = ELX12-58 PDX model with PEG-Doxorubicin or Cisplatin and Seviteronel (FIG. 15); format: in vivo, NSG female mice; settings: ELX-12-58 PDX
Source text: Freshly cut tumour chunks derived from a previously expanded tumour (ELX12-58 PDX model) were transferred into the mammary fat pad of NSG female mice. 15 animals were enrolled per treatment arm. Tumour size was monitored by caliper measurement as previously described. At the time tumour size reached 50-150 mm^3 animals were randomized into treatment arms: Vehicle (Veh), PEG-Doxorubicin (PEG-Dox) and PEG-Dox+Sev. Drug preparation and treatment administration was followed as previously described for the first round of treatment. PEG-Dox (Liposomal Doxorubicin Sun. R:202827) was administrated by weekly injections to a final concentration of 4 mg/kg. At treatment end-point animals were harvested and primary tumour, lymph node metastasis (if present), lung and liver were collected to generate FFPEs for histopathology analysis. […] Treatment was extended for 2 additional weeks, following the 3rd dose of chemotherapy, administrating a total of 5 EPG-Dox injections for these animals. Animals were followed up for 2.5 months, culling mice before if reached ethical end-point. Primary tumour and organs to determine metastatic burden were collected.

[2] = test system: MDA-MB-231 EGFP-Luciferase cells; test: MDA-MB-231 xenograft, Seviteronel and Docetaxel (Example 5, FIG. 11); format: in vivo, mice; settings: Seviteronel 100 mg/kg daily oral gavage, DTX 40 mg/kg i.p., 3 doses
Procedure: Forty-eight mice were enrolled in the experiment and randomized into 4 treatment arms: Vehicle (Veh), Seviteronel (Sev), Docetaxel (DTX) or combination therapy (Sev+Dtx). Animals were 6-8 weeks of age at the time of injection. MDA-MB-231 EGFP-Luciferase cells were cultured in DMEM 10% FBS 1% P/S. On the surgery date, 1×10^6 cells resuspended in 20% Matrigel/DMEM were injected unilaterally into the mammary fat pad. Tumour growth was monitored twice per week to establish growth kinetics. Five weeks post-injection, when tumour size ranged between 50-100 mm^3, animals were randomized to receive daily oral gavage with either vehicle (1% Carboxymethylcellulose, 0.1% Tween-80 and 5% DMSO) or Seviteronel (100 mg/kg). Animals were dosed from Monday to Saturday, leaving 1 day recovery per week. After one week, animals were again randomized within the Vehicle or Seviteronel groups to Control or Chemotherapy (DTX). […] Metastatic burden and tumour size was determined using the IVIS-spectrum imaging system. […] The presence of metastatic cells in each organ was additionally determined by FACS analysis (fluorescence activate cell sorting) using a panel of antibodies previously established in the lab (CD298-PE, CD44-PEcy7 and CD104EF660). Results were analyzed and graphed using Flowjo3 and prism 8. […] Metastatic incidence was analyzed applying two-way ANOVA uncorrected Fisher's LSD test.

[3] = test system: MDA_MB-231-EGFP-Luc cells; test: MDA-MB-231-EGFP-Luc orthotopic xenograft, Docetaxel and Seviteronel (Example 12, FIG. 12); format: in vivo, NSG female mice
Procedure: 1×10^6 MDA_MB-231-EGFP-Luc cells were injected orthotopically into the mammary fat pad of NSG female mice. 14 animals were enrolled per treatment arm to reach 80% statistical power. Tumour size was monitored by caliper measurement twice per week. At the time tumour size reached 50-150 mm^3 animals were randomized into treatment arms: Vehicle (Veh), Seviteronel (Sev), Docetaxel, Docetaxel+Seviteronel. Seviteronel (100 mg/kg) was administrated via oral gavage daily (6 days on+1 day off) for cycles of 4. Seviteronel was resuspended into a 5% DMSO, 0.1% Tween 80, Hydro-methylcellulose solution at a 5 mg/ml concentration. […] Growth kinetics were monitored through the course of treatment and plotted using graph-pad prism (V9). […] At treatment endpoint, animals were injected with luciferin (10 μl/gr of 15 mg/ml stock) and metastatic burden analyzed using an IVIS spectrum imager 10 min post injection. […]
1×10^6 MDA_MB-231-EGFP-Luc cells were injected orthotopically into the mammary fat pad of NSG female mice. […] Tumour size was monitored by caliper measurement twice per week. […] Growth kinetics were monitored through the course of treatment by caliper measurement. […] Metastasis development was monitored until animals reached ethical end-point by weekly IVIS imaging. […]

[4] = test system: CD44^Hi cells isolated from HMLER and HCC38 cell lines; test: Cell proliferation assay (CyQuant); format: cell-based, human; settings: CD44^Hi cells from HMLER and HCC38
Procedure: HMLER, HCC38 and MDA-MB-231 cells were plated in triplicate in 96-well plates at the densities outlined in Table 3. After 24 hours, cells were treated with various chemotherapeutic agents at the following doses: Doxorubicin (0 nM, 25 nM, 50 nM, 75 nM, 100 nM, 200 nM), Cisplatin (0 μg/ml, 0.1 μg/ml, 0.5 μg/ml, 1 μg/ml, 2 μg/ml, 5 μg/ml) or Docetaxel (0 nM, 1 nM, 5 nM, 10 nM, 25 nM, 50 nM); Androgen receptor agonists: Enobosarm (0 nM, 25 nM, 50 nM, 100 nM, 200 nM, 400 nM) or DHT (0 nM, 1 nM, 5 nM, 10 nM, 20 nM, 40 nM); or AR antagonist: Seviteronel (0 nM, 0.5 nM, 2 nM, 10 nM, 20 nM, 50 nM). Assays were harvested daily for five days by removing culture media and storing at −80′C. Cell proliferation was determined using CyQuant Cell Proliferation assay kit according to manufacturer's protocol (ThermoFisher Scientific) and fluorescence was measured at ~480 nm excitation and ~520 nm emission using a microplate reader.

[5] = test system: HMLER-CD44Hi and HCC38 CD44Hi cells; test: Tumoursphere formation assay; format: cell-based, human; settings: CD44^Hi cells, counted at Day 14
Procedure: Single cell suspensions were plated in ultra-low attachment 96-well plates (Corning #CLS3474, New York, USA). HMLE-CD44^Hi cells were plated at a density of 50 cells/well in 100 μl of BPA-free MEGM media (Lonza # CC-3150, Basal, Switzerland). HCC38-CD44^Hi cells were plated at a density of 100 cells/well in serum-free RPMI with 1% penicillin/streptomycin, 20 ng/ml EGF, 20 ng/ml FGFb, 4 μg/mL heparin, 1×B27 and 1% methyl cellulose (Sigma). Media was replenished every five days by adding 50 μL of the appropriate tumoursphere media to each well. Tumourspheres were counted at Day 14. Results are presented as tumoursphere formation efficiency (number of spheres per well divided by the number of cells seeded per well). At Day 14, mammospheres were collected using a 40 μm cell strainer, washed with PBS and dissociated using trypsin-EDTA solution, and stained with anti-CD44PECy7 and anti-CD104PE as per standard FACS staining protocol.

[6] = test system: HMLER-CD44Hi and HCC38 CD44Hi cells; test: Tumoursphere formation assay; format: cell-based, human

Compound	induction of CD44^Lo-to-CD44^Hi transition by chemotherapy [1]	tumour burden (ELX12-58 PDX model)	tumour growth [2]	animals clear of metastasis (metastasis free survival) ([3]; 10 weeks following commencement of second round of treatment (Day 77), IVIS)	CD44^Hi proliferation [4]	tumoursphere formation (tumoursphere-forming efficiency) [5]	blocking of chemotherapy-induced CD44^Lo-to-CD44^Hi transitions ([1]; with chemotherapy simultaneously for 72 hours, Seviteronel 10 μM)	tumour growth compared with Veh (FIG. 12B) ([3]; Seviteronel 150 mg/kg/day 1st week then 100 mg/kg/day for 3 weeks, Dtx 20 mg/kg i.p. x3)	size of tumorspheres [6]
N.N.[Cl][Pt][Cl] [Cisplatin]	induce CD44^Lo cells to transition to the CD44^Hi state	did not reduce ELX-12-58 tumour burden							
CC(=O)O[C@@]12CO[C@@H]1C[C@H](O)[C@@]1(C)C(=O)[C@H](O)C3=C(C)[C@@H](OC(=O)[C@H](O)[C@@H](NC(=O)OC(C)(C)C)c4ccccc4)C[C@@](O)([C@@H](OC(=O)c4ccccc4)[C@H]21)C3(C)C [Docetaxel]	induce CD44^Lo cells to transition to the CD44^Hi state		significantly reduces tumour growth compared to Seviteronel alone	0%					
CC(C)[C@](O)(c1ccc2cc(OC(F)F)c(OC(F)F)cc2c1)c1c[nH]nn1 [Seviteronel, (1S)-1-[6,7-bis(difluoromethoxy)naphthalen-2-yl]-2-methyl-1-(2H-triazol-4-yl)propan-1-ol]			significantly reduces tumour growth kinetics compared to control		decreased CD44Hi proliferation; also recorded: decrease CD44^Hi proliferation; also recorded: inhibits the growth of CD44^Hi cells	decrease; also recorded: dose-dependently inhibits tumoursphere-forming ability	blocks chemotherapy-induced CD44^Lo-to-CD44^Hi transitions; also recorded: inhibits chemotherapy-induced CD44Lo-to-CD44-Hi plasticity; also recorded: can be blocked	significantly reduces tumour growth compared with Veh treatmet arm	reduces the size of tumorspheres
